Data set [1] has as its system Human immunodeficiency virus 1. Description: Antiviral activity against HIV1 NL4-3. The class given is functional. Particulars: Human immunodeficiency virus 1, NL4-3.
In data set [2] the test system is Human immunodeficiency virus 1. Description: Antiviral activity against HIV1 harboring F227L/V106A double mutant infected in human MT4 cells assessed as protection against virus-induced cytopathic effect measured at 5 days post infection by MTT assay. The class given is functional, cell-based. Particulars: Human immunodeficiency virus 1, MT4, 120 h. A general note: Damage to the host cells serves as the signal in cytopathic effect assays.

Data set [3] deals with Human immunodeficiency virus 1. The data set is described as follows: Fold resistance, ratio of EC50 for HIV1 harboring Y181C mutant infected in human MT4 cells to EC50 for wild-type HIV1 3B infected in human MT4 cells. The class given is functional.
Data set [4] is described as follows: Cytotoxicity against human MT4 cells after 5 days by MTT assay. The class given is cell-based. (Tetrazolium dyes change colour on reduction, which living cells bring about.)
For data set [5], the system named is Human immunodeficiency virus 1. Description: Fold resistance, ratio of EC50 for HIV1 harboring Y188L mutant infected in human MT4 cells to EC50 for wild-type HIV1 3B infected in human MT4 cells. In kind it is functional.
Data set [6] has as its system Human immunodeficiency virus 1. The data set is described as follows: Antiviral activity against HIV1 harboring L100I mutant infected in human MT4 cells assessed as protection against virus-induced cytopathic effect measured at 5 days post infection by MTT assay. The class given is functional, cell-based. Conditions: Human immunodeficiency virus 1, MT4, 120 h.
Data set [7] concerns Human immunodeficiency virus 1. Description: Fold resistance, ratio of EC50 for HIV1 harboring K103N mutant infected in human MT4 cells to EC50 for wild-type HIV1 3B infected in human MT4 cells. In kind it is functional.
Data set [8] relates to Human immunodeficiency virus 1. Description: Fold resistance, ratio of EC50 for HIV1 harboring L100I mutant infected in human MT4 cells to EC50 for wild-type HIV1 3B infected in human MT4 cells. The class given is functional.
Data set [9] is described as follows: Solubility of the compound in phosphate buffer at pH 7.4 after 2 hrs by UV-HPLC method. The class given is physicochemical.
Data set [10] has as its system Human immunodeficiency virus 1. Description: Antiviral activity against HIV1 harboring Y188L mutant infected in human MT4 cells assessed as protection against virus-induced cytopathic effect measured at 5 days post infection by MTT assay. In kind it is functional, cell-based. Conditions: Human immunodeficiency virus 1, MT4, 120 h.
The test system of data set [11] is Human immunodeficiency virus 1. Description: Antiviral activity against HIV1 harboring E138K mutant infected in human MT4 cells assessed as protection against virus-induced cytopathic effect measured at 5 days post infection by MTT assay. Particulars: Human immunodeficiency virus 1, MT4, 120 h. The class given is functional, cell-based.
The subject of data set [12] is Human immunodeficiency virus 1. Description: Antiviral activity against HIV1 harboring Y181C mutant infected in human MT4 cells assessed as protection against virus-induced cytopathic effect measured at 5 days post infection by MTT assay. Particulars: Human immunodeficiency virus 1, MT4, 120 h. In kind it is functional, cell-based.
Data set [13] can be described thus: n-Octanol/water partition coefficient, log P of the compound after 2 hrs by HPLC method. The class given is physicochemical.
For data set [14], the system named is Human immunodeficiency virus 2. Description: Antiviral activity against HIV-2 ROD infected in human MT4 cells assessed as protection against virus-induced cytopathic effect measured at 5 days post infection by MTT assay. The class given is functional, cell-based. Conditions: Human immunodeficiency virus 2, ISOLATE ROD, MT4, 120 h.
Data set [15] concerns Human immunodeficiency virus 1. The data set is described as follows: Antiviral activity against HIV1 harboring K103N mutant infected in human MT4 cells assessed as protection against virus-induced cytopathic effect measured at 5 days post infection by MTT assay. In kind it is functional, cell-based. Conditions: Human immunodeficiency virus 1, MT4, 120 h.
Data set [16] deals with Human immunodeficiency virus 1. Description: Antiviral activity against wild-type HIV1 3B infected in human MT4 cells assessed as protection against virus-induced cytopathic effect measured at 5 days post infection by MTT assay. Conditions: Human immunodeficiency virus 1, 3B, MT4, 120 h. In kind it is functional, cell-based.
Data set [17] concerns Human immunodeficiency virus 1. The data set is described as follows: Fold resistance, ratio of EC50 for HIV1 harboring E138K mutant infected in human MT4 cells to EC50 for wild-type HIV1 3B infected in human MT4 cells. In kind it is functional.
The nature of data set [18]: Solubility of the compound in phosphate buffer at pH 2 after 2 hrs by UV-HPLC method. In kind it is physicochemical.
For data set [19], the system named is Human immunodeficiency virus 1. Description: Antiviral activity against HIV1 RES056 harboring K103N/Y181C double mutant infected in human MT4 cells assessed as protection against virus-induced cytopathic effect measured at 5 days post infection by MTT assay. Particulars: Human immunodeficiency virus 1, RES056, MT4, 120 h. In kind it is functional, cell-based.

A short description of data set [20]: Selectivity index, ratio of CC50 for human MT4 cells to EC50 for wild-type HIV1 3B infected in human MT4 cells. In kind it is toxicity, cell-based. Conditions: read-out: Ratio CC50/EC50.
Data set [21] is described as follows: Lipophilicity, log P of the compound. The class given is physicochemical. Conditions: octanol/water.
A short description of data set [22]: Inhibition of wild-type HIV1 reverse transcriptase assessed as decrease in biotin-dUTP incorporation using poly(A)/oligo(dT)15 as template/primer after 1 hr by ELISA. The arrangement: species or system Human immunodeficiency virus 1. (In general: In an ELISA, binding on a coated surface is turned into a signal by an enzyme label.)
Data set [23] in a line: Solubility of the compound in water at pH 7.4. The class given is physicochemical.
Data set [24] is described as follows: Solubility of the compound in 0.1 N HCl at pH 2. The class given is physicochemical.

From ChEMBL document CHEMBL4014278, “Discovery of uracil-bearing DAPYs derivatives as novel HIV-1 NNRTIs via crystallographic overlay-based molecular hybridization” (Eur J Med Chem, 2017) come the findings set out here.

Each structure is given as a SMILES string. In brackets after ≈: the same amount, converted by molar mass. Where only a bound is given, the exact number is not on record here.

As usually defined, the EC50 is the concentration that produces a half-maximal response. `Cc1cc(C#N)cc(C)c1Oc1nc(Nc2ccc(C#N)cc2)nc2[nH]ccc12` yielded a 50% effective concentration (EC50) in data set [1] of 0.53 nM.
One may read the CC50 as the concentration at which the toxic effect on the cells reaches its halfway point. The term solubility denotes the dissolved amount per volume that the medium holds. A lower solubility goes with little dissolved substance. The logP is a log measure of how a compound divides between an organic and an aqueous phase. As for `Cc1cc(/C=C/C#N)cc(C)c1Oc1cc(N)nc(NCCn2ccc(=O)[nH]c2=O)n1`, the EC50 was above 298000 nM in data set [2]; 21900 nM in data set [6]; above 298000 nM in data set [10]; 830 nM in [11]; 4820 nM in [12]; above 298000 nM in data set [14]. Also, the EC50 in [15] is 530 nM; in [16] it was 170 nM; in data set [19] it was above 298000 nM. Besides, the “Ratio EC50” value in data set [3] is on record as 28; in data set [5] it was above 1753; in data set [7], 3; in data set [8], 129; in data set [17], 5. In addition, the CC50 at 120 h in [4] was above 298000 nM. For the same compound, the solubility at 2 h in [9] is 0.43 µg/mL (≈ 1.03 µM); in [18] it was 91.7 µg/mL (≈ 219 µM). This compound displayed a logP at 2 h in [13] of 1.21. Moreover, the selectivity ratio in data set [20] is above 1740.
Broadly, the IC50 is the midpoint of a concentration-inhibition curve. In the case of `Cc1cc(C#N)cc(C)c1Oc1nc(Nc2ccc(C#N)cc2)nc(N)c1Br` [ETRAVIRINE], the EC50 in data set [6] amounted to 6.6 nM; in data set [19] it was 3.4 nM. Further, the logP in [21] was above 5. The IC50 in data set [22] came out at 1000 nM. Besides, the solubility in data set [23] and in data set [24] was below 1 µg/mL each time.
